What all share (format): functional
Holding throughout (settings): read-out: DIZ

The subject of experiment [1] is Aspergillus niger. Description: Antifungal activity against Aspergillus niger at 0.25 mol/L after 2 to 4 days by paper disc method.
Experiment [2] concerns Aspergillus niger. Description: Antifungal activity against Aspergillus niger at 0.13 mol/L after 2 to 4 days by paper disc method.
The test system of experiment [3] is Aspergillus niger. Put plainly: Antifungal activity against Aspergillus niger at 0.06 mol/L after 2 to 4 days by paper disc method.
In experiment [4] the test system is Aspergillus niger. Description: Antifungal activity against Aspergillus niger at 0.03 mol/L after 2 to 4 days by paper disc method.
Experiment [5] relates to Penicillium citrinum. Description: Antifungal activity against Penicillium citrinum at 0.25 mol/L after 2 to 4 days by paper disc method.
Experiment [6] has as its system Penicillium citrinum. Put plainly: Antifungal activity against Penicillium citrinum at 0.13 mol/L after 2 to 4 days by paper disc method.
The test system of experiment [7] is Penicillium citrinum. Description: Antifungal activity against Penicillium citrinum at 0.06 mol/L after 2 to 4 days by paper disc method.
In experiment [8] the test system is Penicillium citrinum. Description: Antifungal activity against Penicillium citrinum at 0.03 mol/L after 2 to 4 days by paper disc method.
For experiment [9], the system named is Escherichia coli. Put plainly: Antibacterial activity against Escherichia coli at 0.25 mol/L after 12 to 24 hrs by paper disc method.
Experiment [10] deals with Escherichia coli. Description: Antibacterial activity against Escherichia coli at 0.13 mol/L after 12 to 24 hrs by paper disc method.
For experiment [11], the system named is Escherichia coli. Put plainly: Antibacterial activity against Escherichia coli at 0.06 mol/L after 12 to 24 hrs by paper disc method.
Experiment [12] has as its system Escherichia coli. Put plainly: Antibacterial activity against Escherichia coli at 0.03 mol/L after 12 to 24 hrs by paper disc method.
Experiment [13] deals with Staphylococcus aureus. Description: Antibacterial activity against Staphylococcus aureus at 0.25 mol/L after 12 to 24 hrs by paper disc method.
In experiment [14] the test system is Staphylococcus aureus. Description: Antibacterial activity against Staphylococcus aureus at 0.13 mol/L after 12 to 24 hrs by paper disc method.
Experiment [15] deals with Staphylococcus aureus. Put plainly: Antibacterial activity against Staphylococcus aureus at 0.06 mol/L after 12 to 24 hrs by paper disc method.
The test system of experiment [16] is Staphylococcus aureus. Description: Antibacterial activity against Staphylococcus aureus at 0.03 mol/L after 12 to 24 hrs by paper disc method.

`COc1ccc(/C=C/C=N/[C@H](C(=O)O)C(C)C)cc1`: the zone of inhibition at 250000 µM in the experiment on Aspergillus niger [1] was determined as 16.7 mm; in the experiment on Penicillium citrinum [5], 14.3 mm; with Escherichia coli [9], 9 mm; with Staphylococcus aureus [13], 9 mm. For the same compound, the zone of inhibition at 130000 µM with Aspergillus niger [2] came to 13.3 mm; in the experiment with Penicillium citrinum [6], 11.7 mm; in the experiment with Escherichia coli [10] it was 8 mm; in the experiment with Staphylococcus aureus [14], 8 mm. For the same compound, the zone of inhibition at 60000 µM worked out at 10.3 mm with Aspergillus niger [3], 12.7 mm in the experiment on Penicillium citrinum [7], 12 mm in the experiment on Escherichia coli [11] and 8 mm with Staphylococcus aureus [15]. For the same compound, the zone of inhibition at 30000 µM in the experiment on Aspergillus niger [4] was found to be 9 mm; in the experiment on Penicillium citrinum [8], 8 mm; with Escherichia coli [12], 8 mm; in the experiment on Staphylococcus aureus [16], 8 mm.

For `O=C(O)[C@H](Cc1ccc(O)cc1)/N=C/C=C/c1ccc(Cl)cc1`, the zone of inhibition at 250000 µM was found to be 29.7 mm with Aspergillus niger [1], 25 mm with Penicillium citrinum [5], 17.8 mm in the experiment on Escherichia coli [9] and 19.3 mm with Staphylococcus aureus [13]. Moreover, the zone of inhibition at 130000 µM in the experiment with Aspergillus niger [2] was 15.7 mm; with Penicillium citrinum [6], 23.5 mm; in the experiment with Escherichia coli [10], 12 mm; in the experiment with Staphylococcus aureus [14], 12.7 mm. Moreover, the zone of inhibition at 60000 µM in the experiment with Aspergillus niger [3] was 15.5 mm; with Penicillium citrinum [7], 15.7 mm; in the experiment with Escherichia coli [11], 15.7 mm; with Staphylococcus aureus [15] it was 11.7 mm. In addition, the zone of inhibition at 30000 µM with Aspergillus niger [4] turned out to be 12.3 mm; in the experiment with Penicillium citrinum [8] it was 11.5 mm; with Escherichia coli [12] it was 13.7 mm; in the experiment on Staphylococcus aureus [16], 9.7 mm.

For `O=C(O)[C@H](Cc1ccccc1)/N=C/C=C/c1ccccc1`, the zone of inhibition at 250000 µM was 10.7 mm in the experiment with Aspergillus niger [1], 10.7 mm in the experiment with Penicillium citrinum [5], 8 mm with Escherichia coli [9] and 11 mm in the experiment on Staphylococcus aureus [13]. Further, the zone of inhibition at 130000 µM in the experiment on Aspergillus niger [2] amounted to 9.2 mm; with Penicillium citrinum [6], 9.7 mm; with Escherichia coli [10], 8 mm; with Staphylococcus aureus [14], 8 mm. Moreover, the zone of inhibition at 60000 µM in the experiment on Aspergillus niger [3] is 8.7 mm; in the experiment on Penicillium citrinum [7], 8 mm; in the experiment on Escherichia coli [11], 8 mm; with Staphylococcus aureus [15], 8 mm. Besides, the zone of inhibition at 30000 µM in the experiment with Aspergillus niger [4] turned out to be 8 mm; in the experiment on Penicillium citrinum [8] it was 8 mm; in the experiment with Escherichia coli [12], 8 mm; in the experiment on Staphylococcus aureus [16], 10 mm.

Regarding `CC(C)C[C@H](/N=C/C=C/c1ccc(Cl)cc1)C(=O)O`, the zone of inhibition at 250000 µM in the experiment with Aspergillus niger [1] came out at 29.3 mm; in the experiment on Penicillium citrinum [5] it was 28.3 mm; in the experiment on Escherichia coli [9] it was 17 mm; in the experiment with Staphylococcus aureus [13], 28.3 mm. Also, the zone of inhibition at 130000 µM with Aspergillus niger [2] is 20.7 mm; in the experiment on Penicillium citrinum [6], 25.7 mm; with Escherichia coli [10], 17.8 mm; in the experiment with Staphylococcus aureus [14] it was 11 mm. For the same compound, the zone of inhibition at 60000 µM was 18.7 mm in the experiment on Aspergillus niger [3], 19.7 mm in the experiment on Penicillium citrinum [7], 10 mm with Escherichia coli [11] and 16.8 mm in the experiment on Staphylococcus aureus [15]. Further, the zone of inhibition at 30000 µM in the experiment on Aspergillus niger [4] was 18.3 mm; in the experiment with Penicillium citrinum [8], 16.5 mm; in the experiment with Escherichia coli [12] it was 9.3 mm; with Staphylococcus aureus [16], 8.7 mm.
